Patent publication US9872863B2, “Targeting primary cilia to treat glaucoma” (Indiana University Research and Technology Corporation, priority 2014, dated 2018)

Key:
TRPV4 = target: T1, TRPV4 (Homo sapiens, UniProt Q9HBA0); experiment: Ca2+ imaging, Fura-2 F340/380 ratio after TRPV4 agonist; assay type: cell-based; parameters: TRPV4-induced calcium flux, ratio of F340/380: dose or concentration left out as unconfirmed
T1 construct: endogenous in cells; host or cells: HTM cells, NHF fibroblasts, NHKC keratinocytes, Lowe syndrome patient fibroblasts and keratinocytes
Protocol: Flow-induced Ca^2+ signals were examined in the presence and absence of cilia in HTM cells. To remove primary cilia, 2 mM aqueous chlorohydrate (Sigma, St. Louis) was added for 48 hours. Prior to flow experiments, cells were washed three times with PBS, and fresh medium was added for 24 hours. The Fura-2 loaded HTM cells were subjected to laminar flow rates as indicated. Single-cell analysis of the Ca^2+ signals (ratio 340/380 nm) of the same experiment was obtained. Intracellular Ca^2+ changes were monitored by ratiometric imaging of Fura-2 AM fluorescence in the HTM cells. HTM cells were loaded with Fura-2 AM for 1 hour at 37° C. in PBS with 40 μM fura-2 AM, 0.33 mM pyruvate, 0.901 mM Ca^2+, 0.5 mM Mg^2+, 5.5 mM glucose, and 0.1% BSA. The Fura-2 AM-loaded HTM cells were washed in PBS and were mounted in the chamber. Ca^2+ imaging experiments were performed using a monochromator-based TILL PHOTONICS imaging system, which was attached to an inverted ZEISS microscope equipped (×2.5 objective) with a back-illuminated ANDOR CCD camera. Fura-2 AM was alternately excited at 345 nm and 380 nm and the emitted light was collected using a 510-nm long-pass filter. The TILLVISION software (TILL PHOTONICS) was used to acquire all fluorescence imaging experiments and to perform the analysis of images. Images were acquired every 2 seconds. The background fluorescence was subtracted and the intracellular Ca^2+ concentration ([Ca^2+]i) was calculated using the equation: [Ca^2+]i=Kd×[(R−Rmin)/(Rmax−R)]×[Fmax(380)/Fmin(380)](R is the fluorescence ratio, Rmax is the ratio at saturation calcium concentration, Rmin is the ratio at zero calcium in the medium, Fmin(380) is the fluorescence at 380 nm at zero Ca^2+ concentration in the medium, and Fmax(380) is the fluorescence at 380 nm at saturation Ca^2+ concentration) (Touw et al., Am. J. Physiol. Gastro. Liver Physiology 2012, 302(1):G66-76).
For calcium flow experiments, HTM cells and NHF cells were first incubated in 3% BSA in PBS and stained with Fura2 dye for 1 hour. Ca^2+ flux was induced by laminar flow gradient (16 μl/s) over the cell surface, which bends cilia, followed by 10 mM KCl. Cells were imaged for calcium during flow. Calcium flux was also measured by F340/380 ratio in HTM cells and NHF cells after treatment with the 0.1 μM TRPV4 agonist GSK1016790A. Results presented represent calcium mobilization in three independent experiments.
HTM cells treated, with or without pressure, were further evaluated to determine their response to TRPV4 agonist. HTM cells were serum-starved for 48 hours to induce ciliogenesis, followed by treatment with 0 or 50 mmHg for 3 hours. Cells were loaded with Fura-2 AM dye for 1 hour, followed with […] TRPV4 agonist GSK1016790A.
OCRL is required for TRPV4-mediated calcium signalling in HTM cells. HTM cells were additionally treated with OCRL siRNA or scrambled control siRNA, with or without wild-type OCRL or OCRL-D499A rescue. 0.1 μM TRPV4 agonist GSK1016790A treatment was performed and calcium mobilization by F340/380 (value X 1000) was measured and shown.
Additionally, a Lowe syndrome patient's keratinocytes were isolated and assayed for their response to TRPV4 treatment. NHKC or Lowe keratinocytes were serum-starved, loaded with Fura-2 AM and then treated with 0.1 μM TRPV4 agonist GSK1016790A. F340/380 ratio (value X 1000) was determined.

wpk−/− rats = experiment: Intraocular pressure in wpk−/− rats (Tonolab tonometer); assay type: in vivo, rat; details: 17-day-old wpk−/− rats, systemic, once per day for 8 days, agonist 50 ng/g, measured 24 hours after treatment
Protocol: All animal experiments followed the guidelines of the ARVO Statement for the Use of Animals in Ophthalmic and Vision Research and were approved by the Institutional Animal Care and Use Committee of Indiana University School of Medicine. Wpk rats, a polycystic kidney disease model, were housed under a 12-hour light/dark cycle with free access to water and food (Smith et al., Nat. Genet. 2006, 38(2):191-196). For […], 50 mg/ml sodium pentobarbital was injected.
(§1) lntraocular Pressure (TOP) was measured with the TONOLAB tonometer TV02 (Helsinki, Finland) with rats under topical anesthesia. IOP was measured using six valid rebound measurements of the device from the eye, where the mean of the middle five readings was taken for one summary measurement. A single set of readings was collected with the best reproducibility indicator during the IOP measurements.
Based on the results presented above, the functional consequences of activating TRPV4 on eye pressure were therefore assessed in the wpk rat model. The wpk rat is a well-established model for studying ciliopathy, as these animals develop hydrocephalus that responds to cilia-based therapy.
8-day old wpk^−/− rats were treated with sham, TRPV4 agonist (50 ng/g, GSK 1016790A), or antagonist (HC 067047) once per day for 8 days. […]

C57BL/6 WT mice = experiment: Intraocular pressure in C57BL/6 WT mice, 4 days of treatment; assay type: in vivo, mouse; details: nine-week old C57BL/6 WT mice, systemic, daily over 4 days, 24 hours after treatment; decrease from 12.4
Protocol: as §1
This finding was confirmed in wild-type C5BL/6 mice treated with systemic TRPV4 agonist, antagonist, or sham control, daily over 4 days. Nine-week old C57BL/6 WT mice were treated with sham, TRPV/4 agonist GSK 1016790A or antagonist HC 067047 for 4 days. IOP was measured using a Tonolab tonometer 24 hours after treatment. As shown in FIG. 12D article, a decrease in IOP from 12.4 to 10.3 mmHg was seen.

HTM cells = experiment: Pressure-induced TNFα, TGFβ1 and Gli1 mRNA in serum-starved HTM cells (RT-PCR); assay type: cell-based, human; details: 50 mmHg for 3 hours
Protocol: Total RNA was extracted using the RNAEASY® kit (Qiagen). Purified RNA was quantitated with the NANODROP® 2000 (Thermo Fisher Scientific, Lafayette, Colo.). Reverse transcription of total RNA was done using SUPERSCRIPT cDNA synthesis kit (Invitrogen) with random hexamers. Quantitative RT-PCR was performed using the RQ and ΔΔCt method on a Step One Real-Time PCR machine (Bio-Rad Laboratories, Hercules, Calif.). Each assay was performed in triplicate with Power SYBR green MasterMix (SA Biosciences, Frederick, Md.).
To analyze the cellular changes in the TM cells, a hydrostatic pressure chamber was developed similar to that of Mandel et al. (Invest. Ophthalmol. Vis. Sci. 2010, 51(6):3129-3138). The cells were grown in 60 mm polycarbonate dishes sealed to attach to a plastic column filled with 400 mL DMEM/F12 media with or without serum for cilia induction. The column was temperature controlled at 37° C. in humidified chamber. […]
HTM cells were serum-starved for 48 hours and treated with saline, saline plus 50 mmHg pressure, chlorohydrate, and chlorohydrate plus 50 mmHg pressure for 3 hours. Levels of mRNA of TNFα, TGFβ1 and Gli1 were then measured. […] Serum-starved HTM cells were also placed under 50 mmHg pressure for 0, 10, 20, 40, 60 and 80 minutes and analyzed for expression of TNFα and IL-33. […]

T1 sequence (Q9HBA0 whole entry): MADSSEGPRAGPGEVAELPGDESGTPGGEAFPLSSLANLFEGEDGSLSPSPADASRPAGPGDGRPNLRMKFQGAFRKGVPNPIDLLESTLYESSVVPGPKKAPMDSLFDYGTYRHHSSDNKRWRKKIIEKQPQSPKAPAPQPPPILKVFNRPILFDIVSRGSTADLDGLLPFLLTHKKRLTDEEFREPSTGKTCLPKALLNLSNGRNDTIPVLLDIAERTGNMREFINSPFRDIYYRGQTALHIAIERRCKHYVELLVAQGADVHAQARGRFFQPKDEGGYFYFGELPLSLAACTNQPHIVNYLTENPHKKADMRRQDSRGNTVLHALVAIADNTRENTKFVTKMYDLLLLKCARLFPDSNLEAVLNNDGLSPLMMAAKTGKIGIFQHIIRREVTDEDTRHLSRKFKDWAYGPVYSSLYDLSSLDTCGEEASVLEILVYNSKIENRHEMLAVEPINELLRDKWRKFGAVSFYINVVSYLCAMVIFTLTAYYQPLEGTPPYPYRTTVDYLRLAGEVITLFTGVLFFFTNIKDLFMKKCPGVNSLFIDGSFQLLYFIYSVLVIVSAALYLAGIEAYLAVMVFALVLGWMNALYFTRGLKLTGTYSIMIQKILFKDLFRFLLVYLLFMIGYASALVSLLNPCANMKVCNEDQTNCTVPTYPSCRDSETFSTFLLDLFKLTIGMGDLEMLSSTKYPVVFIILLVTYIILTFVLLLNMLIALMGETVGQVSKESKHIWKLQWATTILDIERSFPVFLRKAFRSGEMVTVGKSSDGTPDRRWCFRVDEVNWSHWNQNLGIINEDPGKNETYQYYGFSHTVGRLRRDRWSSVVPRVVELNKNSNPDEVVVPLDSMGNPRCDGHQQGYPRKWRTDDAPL

Row | SMILES | Calcium mobilization by F340/380 (TRPV4; HTM cells treated with OCRL siRNA, 0.1 μM agonist, rescued by wild-type OCRL, not by D499A mutant) | Calcium mobilization (TRPV4; Lowe patient fibroblasts (Lowe 1, Lowe 2)) | Calcium mobilization, F340/380 ratio (TRPV4; Lowe patient keratinocytes compared with normal keratinocytes (NHKC), 0.1 μM agonist) | Calcium flux as measured by F340/380 ratio (TRPV4; NHF cells, 0.1 μM agonist) | TRPV4-induced calcium flux, ratio of F340/380 (TRPV4; ciliated HTM cells, 50 mmHg hydrostatic pressure for 3 hours vs 0 mmHg) | Intraocular pressure (wpk−/− rats) | IOP (C57BL/6 WT mice) | Elevation of gene transcription (TNFα, TGFβ1, Gli1 mRNA) in response to pressure (HTM cells)
1 | CC(C)C[C@H](NC(=O)c1cc2ccccc2s1)C(=O)N1CCN(C(=O)[C@H](CO)NS(=O)(=O)c2ccc(Cl)cc2Cl)CC1 [GSK1016790A, N-((1S)-1-{[4-((2S)-2-{[(2,4-dichlorophenyl)sulfonyl]amino}-3-hydroxypropanoyl)-1-piperazinyl]carbonyl}-3-methylbutyl)-1-benzothiophene-2-carboxamide] | decrease in F340/F380 fura-2 signaling | failed to elicit calcium mobilization | failed to elicit calcium mobilization | elicited | significant decrease in TRPV4-induced calcium flux | significantly reduced | 10.3 mmHg | –
2 | Cc1c(C(=O)Nc2cccc(C(F)(F)F)c2)cc(-c2ccccc2)n1CCCN1CCOCC1 [HC 067047] | – | – | – | – | – | not | – | –
3 | OC(O)C(Cl)(Cl)Cl [chlorohydrate] | – | – | – | – | – | – | – | reduced the elevation of gene transcription in response to pressure
